Experimental data taken from US20130108713A1 (RYAOMA, INC., priority 2008, published 2013).

What was measured:
albumin = test: Albumin coagulation, optic density on photoelectric calorimeter; format: biochemical; conditions: for coagulation of the protein (in words): albumin solution
Description: In the coagulation studies, albumin was used for the protein.
In the table, the calculated concentrations of the substances being investigated are listed.
One (1) ml of the tannin solution was put into the test-tube. One (1) ml of the albumin solution was added. 5 ml of water were added. The mixture was shaken. An optic density of the solution was determined on KΦK-2(photoelectric calorimeter) when Δ=260 nm, in cuvette=1 cm in 5, 10, 15, 20, 25 min.
Each weight was repeated three times and the optical density measured.
In addition, the control experiment was conducted with 1 ml of the albumin solution, 0.001 g of potassium iodide, 5 ml of water.

[1] = system: metastatic melanoma-affected patients
Description: The melanoma-affected patients are treated as follows. […] The treatment course spans 15 to 20 intravenous infusions. When a positive dynamic is achieved, the treatment course is followed until the pronounced effect is produced.
Along with an estimated rate of objected responses of therapeutical measures, a comparison was made between such indexes as the quality of life, endurability of therapeutic treatment, and total survivability. The study included the patients of the age period between 18-75 with histologically confirmed diagnoses of skin related melanomas. None of the patients had yet gone through chemotherapy. […] The treatment process continued to the point where the disease started progressing or side-effects developed that required the therapeutic measures to be terminated.
Dacarbazine in a dose of 2500 mg/mL was prescribed in a form of infusion that lasted sixty minutes (60 min.), once a day during successive five days, every four weeks on the 1-5 and 29-33rd days respectively. Repeated courses were carried out only in the patients whose progressing disease was not recorded.

[2] = reaction with PSA; cited from earlier work
[3] = treated patients, hematological side-effect

Compound	optic density (albumin; 0.001 g of potassium iodide added to the tannin/albumin solution)	coagulation of the protein (in words) (albumin)	optic density (albumin; another 0.001 g of potassium iodide added to the tannin/albumin solution)	turbidity in the solution (albumin; control: 1 ml albumin solution, 0.001 g potassium iodide, 5 ml water, one hour later)	frequency of objective responses ([1]; melanoma patients, responses recorded in skin-based metastatic melanomas)	neuropenia recorded [1, 3]	trombocytopenia recorded [1, 3]	optic density d5 (albumin; 1 ml tannin solution + 1 ml albumin solution + 5 ml water, 260 nm, 1 cm cuvette, 5 min)	optic density d10 (albumin; same mixture, 10 min)	optic density d20 (albumin; same mixture, 20 min)	optic density d25 (albumin; same mixture, 25 min)	period of precipitation for the reaction (albumin; tannin + albumin)	moles of N-acetylneuraminic acid sedimented by each mole of tannic acid [2]
[I-].[K+] [potassium iodide]	0.87	did not possess coagulating capacity	0.92	no turbidity	–	–	–	–	–	–	–	–	–
CN(C)/N=N/c1[nH]cnc1C(N)=O [dacarbazine]	–	–	–	–	23%	14 % of observations	57 % of the patients	–	–	–	–	–	–
O=C(OC[C@H]1O[C@@H](OC(=O)c2cc(O)c(O)c(OC(=O)c3cc(O)c(O)c(O)c3)c2)[C@H](OC(=O)c2cc(O)c(O)c(OC(=O)c3cc(O)c(O)c(O)c3)c2)[C@@H](OC(=O)c2cc(O)c(O)c(OC(=O)c3cc(O)c(O)c(O)c3)c2)[C@@H]1OC(=O)c1cc(O)c(O)c(OC(=O)c2cc(O)c(O)c(O)c2)c1)c1cc(O)c(O)c(OC(=O)c2cc(O)c(O)c(O)c2)c1 [tannin, tannic acid]	–	No coagulation	–	–	–	–	–	0.11	0.16	0.19	0.19	20 min	three
